The subject of assay [1] is p-Tau (Thr212). Kind of assay: p-Tau (Thr212)/total Tau in rat cortical neurons (western-blot). Format: cell-based. The note with it: purine derivative 10 μM (A100), 18 h. The method, then: Cells were lysed in freshly prepared lysis buffer containing in mM: Tris-HCl 50, EDTA 2, EGTA 2, NaCl 100, SDS 0.2%, Triton X-100 1%, proteases inhibitors (Roche Protease Inhibitor Cocktail #04693116001), phosphatases inhibitors (in mM: ammonium molybdate 0.1, β-glycerophosphate 20, NaF 50, Na-pyrophosphate 10, Orthovanadate 1). Protein concentration was measured by the Bradford assay and Laemmli buffer was added to each lysate. Proteins (10 μg per lane) were resolved on 12% Nu-PAGE (LifeTechonoliges #NP0342BOX) using MOPS SDS running buffer and transferred on Immobilon-FL PVDF membrane (Millipore #IPFL00010). Membranes were blocked one hour in TBS Tween20 0.1% BSA 5% at room temperature. Primary antibodies were incubated O/N at 4° C. and detected by Alexa 488 conjugated secondary antibodies (Life Techonologies #A11034 and A11029) diluted 1:1.000 in TBS Tween20 0.05% and 1% BSA. The antibodies specific for pThr212-Tau (Abcam #ab4842), pThr181-Tau (AbCam #ab75679), Tau (Millipore #MAB361), APP (Millipore #07-667) and Actin (Millipore #MAB1501) were diluted in TBS Tween20 0.05% and 1% BSA. Fluorescent signal was visualized with the VersaDoc™ Imaging System (Bio-Rad Laboratories) and quantified with Quantity One® Analysis Software. Grey levels measured for bands of interest were normalized to the corresponding actin bands.
For assessing the protein Tau's phosphorylation, the culture media of rat cortical neurons were replaced by incubation medium containing purine derivatives at 10 μM (A100) or vehicle (0.1% DMSO; Control). After 18 h incubation p-Tau (Thr212) and total Tau were quantified in the cellular extracts by western-blot.

The test system of assay [2] is short-term memory (working memory). Kind of assay: Y-maze spontaneous alternation test. The format is in vivo, C57Bl/6J mice. Particulars: WT mice, 8 mg/kg subcutaneous, 28 days. The method, then: FIG. 13. Plots illustrating the effect of Aftin-5 on short-term memory (working memory) in Y maze. C57B1/6J mice were exposed sub-cutaneously to Aftin-5 at 8 mg/kg (A8) or vehicle (DMSO/PEG; Veh) during 28 days through an Alzet pump. 3-4 weeks later, cognitive abilities were assessed by the means of the total number of arm entries (A) and the percentage of alternation (B). Mann-Whitney tests were performed and **p<0.01 indicates significant differences between Aftin-5 and control conditions. Data expressed as means+/−SEM with n=15 mice/condition. The spontaneous alternation test (Y maze) is a test to evaluate the short-term memory (working memory) of the animal. This test is carried out in a Y-maze with arms customized by different forms; squares (A), triangles (B) and lines (C). The mouse is placed in one of the arms for 8 min. In this test, the mouse is free to explore spontaneously the three arms of the Y-maze (FIG. 1). During the session, the number of entries of each arm of the Y-maze is counted. At the end of the session, the number of possibility (number of total entries in the arms) and the number of spontaneous alternation are calculated. An alternation is defined by consecutive entries in the three different arms (A-B-C). A mouse with a normal phenotype will tend to explore the novelty. […]

Assay [3] relates to BDNF. Description: BDNF mRNA in OHSC (RT-qPCR). Particulars: OHSCs from WT mice, 50 μM, 10 days. Format: cell-based. The protocol:
FIG. 15. Plots illustrating the effect of Aftin-5 on relative mRNA expression levels of Long Term Potentialisation (LTP) biomarkers, i.e CREB (A), PSD95 (B) and BDNF (C) in C57B16J OHSC mice treated chronically with Aftin-5. OHSC culture media of OHSC were replaced by incubation medium containing Aftin-5 (50 μM; A50) or vehicle (0.1% DMSO; Veh). 10 days later, total mRNA in lysate was isolated and purified, cDNAs were then synthesized from […] of total mRNA. cDNAs were amplified by quantitative RT-PCR and the relative expression of specific genes was normalized to the housekeeping gene HPRT1 (2^—ΔCt). […] Data expressed as means+/−SEM from q=3 independent experiments with n=4-6 inserts/condition and 10 slices/insert. […]
The impact of Aftin-5 on gene expression of different biomarkers was determined by measuring mRNA levels of selected BDNF, CREB, PS95, INS Receptor/IGF-1 receptor, IL-1β, IL-6 in OHSC treated chronically with Aftin-5 or in a total brain from mice exposed to Aftin-5 at either 8 or 30 mg/Kg. […] RNA concentration was measured spectrophotometrically at 260 nm in a NanoDrop 2000c (Thermo Scientific, Villebon-sur-Yvette, France) (sample A260 nm/A280 nm ratios over 1.8 indicated reduced genomic DNA contamination). cDNAs were synthesized from 0.5 μg of total RNA with RT^2 First Strand kit (Qiagen, Courtaboeuf, France) according to the manufacturer's protocol and stored at −80° C. […]

Results on 1 compound are retold here after patent US11472807B2, “Purine derivatives for use as medicament and for use in treating neurodegenerative or neuro-inflammatory disorders” (COMMISSARIAT À L'ENERGIE ATOMIQUE ET AUX ENERGIES …, priority 2017, dated 2022).

As to `CC[C@H](CO)Nc1nc(N(C)c2ccccc2)c2ncn(C(C)C)c2n1` [Aftin-5], in assay [1], the “Attenuation of P-Tau/Tau ratio” value is “+(>1 μM) (“+” means that the tested compound shows an anti-inflammatory and/or attenuation of Tau's phosphorylation property with a concentration higher than 1 μM)”. The “spatial memory in Y-maze” value in assay [2] is recorded as “improved spatial memory”. Moreover, the “BDNF mRNA” value in assay [3] is listed as “transcriptional upregulation”.
